Results: patent US9700563B2, “Kappa opioid receptor compounds” (MediSynergies, LLC, priority 2012, dated 2017)

What was measured:
Human MOR = Human MOR (Homo sapiens (Human), UniProt P35372); experiment: Opioid receptor affinity, Mu (MOR), NIMH PDSP; type: binding; details: read-out: MOR % inh. at 10 uM
Protocol: (§1) The compounds were tested for activity vs. opioid receptor subtypes Kappa (KOR), Delta (DOR) and Mu (MOR) at an initial concentration of 10 μM each, through the NIMH Psychoactive Drug Screening Program (PDSP), operated by Dr. Bryan Roth and his colleagues in the Department of Pharmacology at the University of North Carolina (Chapel Hill, N.C.) through an agreement with the National Institute of Mental Health (NIMH). Human KOR, DOR and MOR were expressed in CHO cells for each assay.

Human DOR = Human DOR (Homo sapiens (Human), UniProt P41143); experiment: Opioid receptor affinity, Delta (DOR), NIMH PDSP; type: binding; details: read-out: DOR % inh. at 10 uM
Protocol: as §1

[1] = cited from earlier work
Human KOR = Human KOR (Homo sapiens (Human), UniProt P41145); experiment: Opioid receptor affinity, Kappa (KOR), NIMH PDSP; type: binding; details: human KOR expressed in CHO cells
Protocol: as §1

Chain of Human MOR (P35372 whole entry): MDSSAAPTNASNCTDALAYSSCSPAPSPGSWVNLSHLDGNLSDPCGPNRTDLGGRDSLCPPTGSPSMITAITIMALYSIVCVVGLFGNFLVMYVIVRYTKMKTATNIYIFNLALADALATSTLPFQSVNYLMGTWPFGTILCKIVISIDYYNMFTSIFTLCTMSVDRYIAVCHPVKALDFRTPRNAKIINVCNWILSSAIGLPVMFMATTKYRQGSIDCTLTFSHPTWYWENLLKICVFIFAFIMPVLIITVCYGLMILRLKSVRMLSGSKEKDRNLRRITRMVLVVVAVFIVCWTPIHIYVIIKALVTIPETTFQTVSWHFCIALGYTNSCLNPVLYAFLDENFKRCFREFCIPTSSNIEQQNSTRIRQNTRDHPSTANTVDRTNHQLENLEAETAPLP
Chain of Human DOR (P41143 whole entry): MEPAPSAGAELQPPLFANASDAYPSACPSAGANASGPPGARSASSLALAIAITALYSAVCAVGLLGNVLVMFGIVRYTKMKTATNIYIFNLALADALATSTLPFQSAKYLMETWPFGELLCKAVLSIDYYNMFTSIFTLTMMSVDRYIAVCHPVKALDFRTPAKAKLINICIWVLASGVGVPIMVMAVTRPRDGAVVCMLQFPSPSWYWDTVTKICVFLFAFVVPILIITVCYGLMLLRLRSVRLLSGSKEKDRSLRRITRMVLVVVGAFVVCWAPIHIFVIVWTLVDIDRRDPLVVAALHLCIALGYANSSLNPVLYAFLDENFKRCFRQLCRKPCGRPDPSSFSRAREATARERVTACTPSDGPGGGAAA
Chain of Human KOR (P41145 whole entry): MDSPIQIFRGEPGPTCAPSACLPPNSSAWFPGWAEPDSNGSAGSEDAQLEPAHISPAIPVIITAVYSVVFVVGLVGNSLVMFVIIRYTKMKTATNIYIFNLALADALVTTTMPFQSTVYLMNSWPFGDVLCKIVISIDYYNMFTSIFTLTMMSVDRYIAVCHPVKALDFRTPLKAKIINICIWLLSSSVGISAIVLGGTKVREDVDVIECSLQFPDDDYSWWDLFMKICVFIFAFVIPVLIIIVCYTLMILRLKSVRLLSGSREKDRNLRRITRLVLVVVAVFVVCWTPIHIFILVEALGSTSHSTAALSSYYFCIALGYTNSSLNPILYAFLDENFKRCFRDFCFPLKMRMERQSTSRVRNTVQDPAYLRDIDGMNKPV

inhibition at 10 µM (Human MOR)	inhibition at 10 µM (Human DOR)	Ki (Human KOR)	SMILES	dysphoric behavior or hallucinations ([1]; Phase II trials in the U.S.)	incidence of nausea and vomiting ([1]; post-operative patients)
39%	24%		CN(C)CCCC1(c2ccc(F)cc2)OCc2cc(-c3ncc[nH]3)ccc21 (stereo not shown) [Example 7]		
			CC(C)C[C@@H](NC(=O)[C@@H](Cc1ccccc1)NC(=O)[C@H](N)Cc1ccccc1)C(=O)N[C@H](CCCCN)C(=O)N1CCC(N)(C(=O)O)CC1 [CR845]	has not displayed dysphoric behavior or hallucinations	reduced incidence of nausea and vomiting
39%	10%	30 nM	CN(C)CCCC1(c2ccc(F)cc2)OCc2cc(C(=N)NCc3ccccc3)ccc21 (stereo not shown) [Example 4, N-benzyl-1-[3-(dimethylamino)propyl]-1-(4-fluorophenyl)-1,3-dihydro-2-benzofuran-5-carboximidamide]		
8%	6%	249 nM	CN(C)CCCC1(c2ccc(F)cc2)OCc2cc(C(=N)N3CCCC3)ccc21 (stereo not shown) [Example 6, 1-[1-[3-(dimethylamino)propyl]-1-(4-fluorophenyl)-1,3-dihydro-2-benzofuran-5-yl]-1-(pyrrolidin-1-yl)-methanimine]		
